{"source": "paper PMC5859730", "about": "“Dual targeting of the cancer antioxidant network with 1,4-naphthoquinone fused Gold(I) N-heterocyclic carbene complexes” (Chemical Science, 2017)", "key": {"[1]": {"tested_on": "zebrafish embryos", "assay": "Zebrafish toxicity analysis (lethality, MTD)", "assay_type": "in vivo"}, "[2]": {"tested_on": "A549 xenografts in zebrafish embryos", "assay": "Zebrafish A549 tumor xenograft efficacy", "assay_type": "in vivo", "details": "0.5 μM, 48 to 72 hpf", "description": "The anticancer activity of the complex 1 was tested using a qualitative high throughput zebrafish tumor xenograft model (IACUC # I13009).[74] First, zebrafish embryos were divided into 7 groups at an average of 65 embryos per group. Each group was treated with vehicle (DMSO) or complex 1 at variable concentrations to identify the maximum tolerable dose (MTD) (Fig. S29 ^†). […] Therefore, efficacy studies, using zebrafish bearing human tumor xenografts were carried out with complex 1 being administered at the 0.5 μM concentration level.[75]–[77] Briefly, live human lung cancer cells (A549) were labeled with CM-DiI (red) and only live cells were transplanted via injection into the perivitelline space of 30 zebrafish embryos 24 hours post fertilization (hpf).[74],[78],[79] Tumor inoculated zebrafish embryos were allowed to grow for one day till 48 hpf. This allows for establishment of the cancer cells in the host zebrafish embryos. At 48 hpf, the xenograft bearing zebrafish embryos were split into 2 groups (15 embryos per group) and treated with vehicle (DMSO) or complex 1 at 0.5 μM for one additional day (72 hpf), and cancer cell death was observed using acridine orange staining (green). Live zebrafish-A549 tumor xenografts treated with DMSO display features consistent with the presence of tumor cells (red, white arrows in Fig. 10A). […]"}, "[3]": {"tested_on": "A549 cells", "assay": "Apoptosis by annexin-V/PI flow cytometry", "assay_type": "cell-based, human", "details": "A549, 1.25–20 μM, 24 h"}, "[4]": {"tested_on": "2780CP ovarian", "assay": "Cell proliferation (MTT assay) in 2780CP ovarian cells", "assay_type": "cell-based, human", "details": "isogenic to A2780, multi-drug resistance; Table 3", "description": "(§1) Further anti-proliferation studies were carried out with complex 1 and its naphthoquinone component 4[H][Cl] using the following cell lines: A2780 ovarian (a wt-p53 cell line sensitive to platinum treatment), 2780CP ovarian (isogenic to A2780 but expressing multi-drug resistance (MDR)), and PC-3 prostate (p53 null) (Table 3).\n(§2) Biological preparations and assays\n(§3) Experimental compound preparation. Stock solutions of complexes 1–3, 4[H][Cl], auranofin (Tocris Bioscience 4600), and doxorubicin (Tocris Bioscience 2252) were dissolved in DMSO (2.5–10 mM, depending on the compound and its solubility), aliquoted, and stored at -80 °C prior to use.\n(§4) Biological Materials and Cell Lines. Cell lines were obtained from the ATCC (A549 and PC-3) and Prof.\n(§5) Zahid Siddik at M.D. Anderson Cancer Center (A2780 and A2780CP). Cell culture plastic ware (i.e. T-75 flasks, treated 6-well plates, treated 96-well plates, and cell scrapers) were obtained from Fisher Scientific. […]\n(§6) were made. […] The medium was then removed, the resulting formazan was dissolved in […] DMSO and the respective absorbances were measured at 560–650 nm using a microplate reader (Molecular Devices, Sunnyvale, CA). Absorbance values were corrected for background and then normalized to wells containing untreated cells to allow for plate-to-plate comparisons. […]"}, "[5]": {"tested_on": "A2780 ovarian", "assay": "Cell proliferation (MTT assay) in A2780 ovarian cells", "assay_type": "cell-based, human", "details": "wt-p53, platinum sensitive; Table 3", "description": "as §1, §2, §3, §4, §5, §6"}, "[6]": {"assay": "Differential pulse voltammetry, quinone reduction potentials", "assay_type": "physicochemical", "details": "DMSO, 0.1 M [N(nBu)4][PF6], 0.1 mM analyte, vs. SCE", "description": "A series of electrochemical analyses, including cyclic voltammetry (CV) and differential pulse voltammetry (DPV), were carried out with [NnBu4][PF6] in anhydrous dimethyl sulfoxide (DMSO) in order to evaluate electronic properties of compounds 1–3 and 4[H][Cl]. […] These electrochemical features were attributed to the reduction of the quinone moiety to first produce the semiquinone radical (NQ^–) and then produce the quinone dianion (NQ^2–) forms of compounds 1–3 and 4[H][Cl].[70],[71] The quinone reduction potential in 4[H][Cl] occurs at –0.38 V, the lowest of all the molecules studied, indicative of a positively charged imidazolium ring. The quinone couple at –0.42 V observed for compound 1 is ascribed to the presence of bis(NHC). The same wave in compound 3 appears at a more negative potential (–0.47 V), presumably due to greater trans effects excreted by quinone annulated NHC ligand than the metal-bound chloride. This analysis agrees well with the differences in the observed δ^13C (Au–Ccarbene) resonances for compounds 1 and 3. […]\nmM) as referenced to SCE (internal standard Fc0/+, adjusted to 0.435 V vs. SCE)."}, "[7]": {"tested_on": "A549 lung cancer cells", "assay": "ICP-MS detection of intracellular Au (cellular uptake)"}, "[8]": {"tested_on": "A549 cells", "assay": "Detection of intracellular ROS by flow cytometry (CM-H2DCFDA)", "assay_type": "cell-based, human", "details": "A549, 2.5 μM, 6 h incubation, CM-H2DCFDA"}, "[9]": {"tested_on": "DNA duplex (5'CCGCAGCCA3'/5'TGGCTGCGG3')", "assay": "Thermal denaturation of a DNA duplex", "assay_type": "binding", "details": "1 molar equivalent, 5 μM complex and duplex"}, "[10]": {"tested_on": "PC-3 prostate", "assay": "Cell proliferation (MTT assay) in PC-3 prostate cells", "assay_type": "cell-based, human", "details": "p53 null; Table 3", "description": "as §1, §2, §3, §4, §5, §6"}}}
{"smiles": "Cc1cc(C)c(-n2c3c(n(-c4c(C)cc(C)cc4C)[c]2=[Au-]=[c]2n(-c4c(C)cc(C)cc4C)c4c(n2-c2c(C)cc(C)cc2C)C(=O)c2ccccc2C4=O)C(=O)c2ccccc2C3=O)c(C)c1.[Cl][Ag-][Cl]", "note": "[Complex 1, [bis(1,3-dimesityl-4,5-naphthoquino-imidazol-2-ylidene)-gold(I)] [silver(I)dichloride]]", "values": [{"measurement": "Lethality", "setting": "[1]; zebrafish embryos, concentrations above 1 μM", "value": 100, "unit": "%"}, {"measurement": "LC50 (50% lethal concentration)", "setting": "[1]; zebrafish embryos/larvae", "value": 0.75, "unit": "µM"}, {"measurement": "Mortality", "setting": "[1]; zebrafish larvae, 0.75 μM dose", "value": "~ 50%"}, {"measurement": "Tumor cell death in xenografts (acridine orange staining)", "setting": "[2]", "value": "evidence of apoptosis for the majority of tumor cells"}, {"measurement": "Mechanism of cell death", "setting": "[3]", "value": "induces controlled cell death via an apoptotic mechanism"}, {"measurement": "IC50", "setting": "[4]", "value": "0.054 ± 0.006", "unit": "µM"}, {"measurement": "IC50", "setting": "[5]", "value": "0.026 ± 0.007", "unit": "µM"}, {"measurement": "E 1/2 a (V) DPV", "setting": "[6]; first reduction, semiquinone radical (NQ˙–)", "value": "–0.42 V"}, {"measurement": "E 1/2 b (V) DPV", "setting": "[6]; second reduction, quinone dianion (NQ2–)", "value": "–1.31 V"}, {"measurement": "Intracellular Au levels (uptake), in words", "setting": "[7]", "value": "identical"}, {"measurement": "Increase in intracellular ROS (fluorescence cell population shift)", "setting": "[8]", "value": 27, "unit": "fold"}, {"measurement": "Thermal stabilization of DNA", "setting": "[9]", "value": "no thermal stabilization"}, {"measurement": "IC50", "setting": "[10]", "value": "0.096 ± 0.017", "unit": "µM"}]}
